Peptide text beside a SMILES is read from it.
Tests used:
interleukin-6 = assay: Suppression of LPS-induced IL-6 expression in RAW 264.7 macrophage cells (RT-PCR, Real-Time PCR); format: cell-based
Description: First, RAW 264.7 macrophage cells were purchased from American Type Culture Collection (ATCC; Manassas, Va.), and were culture at a temperature of 37° C., under 5% CO2 atmosphere, using 10% Fetal Bovine Serum (FBS) and Dulbecco's Modified Eagle's Medium (DMEM) containing 1% penicillin/streptomycin.
The cultured RAW 264.7 macrophage cells were divided into a 6-well cell culture plate. After 24 hours, the cells were pretreated with compound 1.1 (SEQ ID NO: 2), compound 1.2, and smaducin-6, respectively, in a concentration of 100 nM for 30 min, and further treated with lipopolysaccharides (LPS) for two hours. These cells were collected using TRIzol® and the RNA was extracted. From 2 μg of the extracted RNA, cDNAs (complementary deoxyribonucleic acids) were synthesized and reverse transcription polymerase chain reactions (RT-PCR) and real-time polymerase chain reactions (Real-Time PCR) were performed. Samples from the RT-PCR were confirmed by electrophoresis on agarose gels and quantified using densitometer. A glyceraldehyde 3-phosphate dehydrogenase (GAPDH) gene was used as a loading control for the interleukin-6 gene.
RAW 264.7 macrophage cells were treated with varying concentrations of compound 1.1 (SEQ ID NO: 2) from 50 pM to 500 nM for 30 minutes, and treated with 100 ng/mL of LPS for two hours.

NF-κB = assay: 5×NF-κB-Luc reporter luciferase assay in LPS-treated RAW 264.7 cells; format: cell-based; conditions: 100 nM for 30 minutes, LPS 100 ng/ml two hours
Description: Specifically, 5×NF-κB-Luc reporter plasmid was transfected into RAW 264.7 cells using Effectene (Qiagen, USA). The transfected cells were pretreated with 100 nM of compound 1.1 (SEQ ID NO: 2) for 30 minutes, and further treated with LPS (100 ng/ml) for two hours, and luciferase activity in the cells was measured (FIG. 4 depicts a graph showing relative inhibition activities of compound 1.1 (SEQ ID NO: 2) and compound 1.2 to NF-κB activation). When the cells were treated with compound 1.1 (SEQ ID NO: 2) and compound 1.2 according to the present invention, activation of NF-κB, which was induced by LPS, was inhibited (FIG. 4).
In addition, 5×NF-κB-Luc reporter plasmid was transfected into RAW 264.7 macrophage cells and treated with compounds of the present invention, as described above. After 24 hours of the transfection, the cells were pretreated with DMSO (control), compound 1.1 (SEQ ID NO: 2), reference compound 1 (SEQ ID NO: 16) (compound where palmitic acid is removed from compound 1.1 (SEQ ID NO: 2)), and smaducin-6 were treated at various concentrations of 100 pM, 1 nM, and 100 nM for 30 minutes, and then the cells were treated with 100 ng/ml of LPS for two hours.
(§1) Specifically, 5×NF-κB-Luc reporter plasmid, SBE-Luc reporter plasmid, and BRE-Luc reporter plasmid were individually transfected into Raw 264.7 macrophage cells. After 24 hours, the cells transfected with the NF-κB-Luc reporter plasmid were treated with 100 ng/mL of LPS, the cells transfected with the SBE-Luc reporter plasmid were treated with 5 ng/mL of TFG-β1, and the cells transfected with the BRE-Luc reporter plasmid were treated with 100 ng/mL of BMP6 for two hours.
As described in Example 2.3, 5×NF-κB-Luc reporter plasmid was transfected into RAW 246.7 macrophage cells. After 24 hours, the cells transfected with NF-κB-Luc reporter plasmid were pretreated with compound 1.1 (SEQ ID NO: 2) (100 nM), interleukin-1-receptor-associated-kinase-1/4 inhibitor (IRAK1/4) inhibitor (25 μM, CAS 509093-47-4), and smaducin-6 (100 nM) for 30 minutes, and then further treated with LPS (100 ng/ml) for 2 hours. Subsequently, luciferase activities in the cells were measured.

SBE (TFG-β1 signaling) = assay: SBE-Luc reporter assay in Raw 264.7 cells treated with TFG-β1; format: cell-based; conditions: 5 ng/mL TFG-β1 two hours
Description: as §1

[1] = tested on: chemokines (CCL20, CCL2 and CX3CL1); assay: Chemokine expression in large intestine tissues of DSS chronic colitis mice (Real-Time PCR); format: in vivo; conditions: oral 100 mg/kg daily for 10 days, sulfasalazine 500 mg/kg as comparison
Description: Meanwhile, as shown in FIGS. 11B-11D, mice suffering from chronic colitis induced by DSS were orally administered sulfasalazine in an amount of 500 mg/kg and compound 1.1 (SEQ ID NO: 2) in an amount of 100 mg/kg daily for 10 days. After 10 days of administration, large intestine tissues were obtained from the mice, and expression of chemokines (CCL20, CCL2 and CX3CL1) in the tissues was measured using real-time polymerase chain reaction (Real-Time PCR) as described above.

[2] = Plasma concentration / pharmacokinetics after intravenous and oral administration; format: in vivo, Male SD rat
Description: Compound 1.1 (SEQ ID NO: 2) was administered to a rat intravenously (I.V., 5 mg/kg) or orally (50 mg/kg), and 24 hours after administration, the concentration of compound 1.1 (SEQ ID NO: 2) in plasma was measured (FIG. 18 and FIG. 19).

VEGF = assay: qRT-PCR of VEGF in high-glucose HRMEC cells; format: cell-based; conditions: 30 mM glucose 48 hours, 10 nM and 50 nM
Description: In addition, HRMEC cells were treated with 5.5 mM of glucose for reference group. For experiment group, the HRMEC cells were treated with 30 mM of glucose for 48 hours to induce high blood glucose condition, and simultaneously treated with DMSO, compound 1.1 (SEQ ID NO: 2) (10 nM), and compound 1.1 (SEQ ID NO: 2) (50 nM). Changes in expression of Nox-4, VEGF, VEGFR1, VEGFR2, Ang1, Ang2, Tie-2, EPO, and EPOR proteins were quantitatively measured by qRT-PCR (quantitative RT-PCR). Expression of VEGF precursor as stimulating factor of new blood vessel was reduced by treatment with compound 1.1 (SEQ ID NO: 2) (FIG. 25C).

[3] = plasma, iv, Male SD rat, single dose 5 mg/kg (i.v.)

CCCCCCCCCCCCCCCC(=O)N1CCC[C@H]1C(=O)N1CCC[C@H]1C(=O)NCC(=O)N[C@@H](Cc1ccc(O)cc1)C(=O)O [compound 1.1, (S)-3-(4-hydroxyphenyl)-2-(2-((S)-1-((S)-1-palmitoylpyrrolidine-2-carbonyl)pyrrolidine-2-carboxamido)acetamido)propanoic acid] (HELM PEPTIDE1{[CCCCCCCCCCCCCCCC(=O)[*:2]].P.P.G.Y}$$$$V2.0)
IC50 (interleukin-6; Mus musculus, RAW264.7, 50 pM to 500 nM for 30 minutes, 100 ng/mL LPS two hours, read-out: concentration where the expression of interleukin-6 was suppressed to 50% or below (IC50)): ~1.6 nM | expression of interleukin-6 induced by LPS treatment (interleukin-6; pretreated 100 nM for 30 min, LPS two hours, compared to untreated sample): suppressed | inhibition of the activity of NF-κB induced by LPS, dose dependence (NF-κB; 100 pM, 1 nM): increased as dose of compound 1.1 (SEQ ID NO: 2) increased | activation of NF-κB induced by LPS (luciferase activity) (NF-κB): inhibited | activation of SBE induced by TFG-β1 treatment (SBE (TFG-β1 signaling)): not inhibited | expression of chemokines (CCL20, CCL2 and CX3CL1) in large intestine tissues [1]: effective chemokine blockers | AUC(0-t) [2, 3]: 2140 ng·h/mL | Cmax [2, 3]: 6020 ng/mL | Tmax [2, 3]: 4.8 min | clearance [2, 3]: 45 mL/min/kg | Vd ([2]; plasma, iv, Male SD rat, single dose 5 mg/kg (i.v.), read-out: Vss): 5.4 ± 1 L/kg | Tmax ([2]; plasma, po, Male SD rat, single dose 50 mg/kg (p.o.)): 0 min | time within which the concentration decreased to 1/100 of the initial concentration ([2]; rat, intravenous 5 mg/kg): 1 to 2 h | concentration detected in blood ([2]; rat, intravenous 5 mg/kg, within 8 hours from the administration): very low concentration | detection in blood ([2]; rat, oral 50 mg/kg, after 30 minutes from the oral administration): not detected | expression of VEGF precursor (VEGF): reduced

— patent publication US11365215B2, “Method for preventing, improving, or treating inflammatory bowel disease” (Research & Business Foundation Sungkyunkwan University, priority 2015, dated 2022)
